Measured values from ChEMBL document CHEMBL3885881, “DrugMatrix”.

Organism: Rattus norvegicus
Assay: DrugMatrix - Regimen: Daily Repeat
Format: toxicity, organism-based, Sprague-Dawley
Parameters: regimen Daily Repeat, gender Male, age 6-8 weeks
Details: in vivo, iv, vehicle 100 % SALINE
[1] = 0 mg/kg, 120 h, tissue Plasma, dose level Control, time 5 day
[2] = 2 mg/kg, 72 h, tissue Blood, dose level High, time 3 day
[3] = 2 mg/kg, 72 h, tissue Plasma, dose level High, time 3 day
[4] = 2 mg/kg, 120 h, tissue Blood, dose level High, time 5 day
[5] = 2 mg/kg, 120 h, tissue Plasma, dose level High, time 5 day

## CISPLATIN
[1]
  CHLORIDE: 100.33 MEQ/L
  CHOLESTEROL: 69.33 mg/dL
  CREATININE: 0.22 mg/dL
  GLUCOSE: 155.17 mg/dL
  PHOSPHORUS: 11.2 mg/dL
  POTASSIUM: 5.5 MEQ/L
  TOTAL BILIRUBIN: 0.18 mg/dL
  URIC ACID: 0.88 mg/dL
[2]
  ABSOLUTE BASOPHIL: 0 CELLS/uL
  ABSOLUTE EOSINOPHIL: 0 CELLS/uL
  ABSOLUTE LYMPHOCYTE: 6398.67 CELLS/uL
  ABSOLUTE MONOCYTE: 72 CELLS/uL
  BASOPHIL: 0%
  EOSINOPHIL: 0%
  ERYTHROCYTE COUNT: 5.34 x10E6/uL
  HEMATOCRIT: 33.2%
  HEMOGLOBIN: 13.07 G/DL
  LEUKOCYTE COUNT: 6.77 x10E3/uL
  LYMPHOCYTE: 94.67%
  MONOCYTE: 1%
  NEUTROPHIL: 4.33%
  NUCLEATED RED BLOOD CELLS: 0 /100WBC
  PLATELET COUNT: 1193.33 x10E3/uL
[3]
  ALANINE AMINOTRANSFERASE: 59.33 u/L
  ALKALINE PHOSPHATASE: 321.33 u/L
  ASPARTATE AMINOTRANSFERASE: 83.33 u/L
  BLOOD UREA NITROGEN: 45.67 mg/dL
  CARBON DIOXIDE: 28 mmol/L
  CHLORIDE: 98.67 MEQ/L
  CHOLESTEROL: 63.33 mg/dL
  CREATININE: 0.81 mg/dL
  GLUCOSE: 165.67 mg/dL
  LACTATE DEHYDROGENASE: 157 u/L
  LIPASE: 8.33 u/L
  PHOSPHORUS: 9.77 mg/dL
  POTASSIUM: 5.3 MEQ/L
  TOTAL BILIRUBIN: 0.3 mg/dL
  URIC ACID: 0.97 mg/dL
[4]
  ABSOLUTE BASOPHIL: 0 CELLS/uL
  ABSOLUTE EOSINOPHIL: 0 CELLS/uL
  ABSOLUTE LYMPHOCYTE: 6841 CELLS/uL
  ABSOLUTE MONOCYTE: 28.67 CELLS/uL
  BASOPHIL: 0%
  EOSINOPHIL: 0%
  ERYTHROCYTE COUNT: 5.89 x10E6/uL
  HEMOGLOBIN: 14.03 G/DL
  LEUKOCYTE COUNT: 7.07 x10E3/uL
  LYMPHOCYTE: 97%
  MEAN CORPUSCULAR HEMOGLOBIN: 23.87 pg
  MEAN CORPUSCULAR HEMOGLOBIN CONCENTRATION: 39.17 G/DL
  MONOCYTE: 0.33%
  NEUTROPHIL: 2.67%
  NUCLEATED RED BLOOD CELLS: 0 /100WBC
  PLATELET COUNT: 1329.67 x10E3/uL
[5]
  ALANINE AMINOTRANSFERASE: 52 u/L
  ALKALINE PHOSPHATASE: 249 u/L
  ASPARTATE AMINOTRANSFERASE: 79.33 u/L
  BLOOD UREA NITROGEN: 37.67 mg/dL
  CHLORIDE: 100 MEQ/L
  CHOLESTEROL: 80 mg/dL
  CREATININE: 0.65 mg/dL
  GLUCOSE: 137.33 mg/dL
  LACTATE DEHYDROGENASE: 134.33 u/L
  LIPASE: 11.67 u/L
  PHOSPHORUS: 9.43 mg/dL
  POTASSIUM: 5.31 MEQ/L
  TOTAL BILIRUBIN: 0.17 mg/dL
  URIC ACID: 0.67 mg/dL
